Reference: US20150038404A1, “MACROCYCLIC COMPOUNDS” (University of Florida Research Foundation, priority 2012, published 2015)

How the values were obtained:
Format in all cases: cell-based
BEAS-2B cells [1] = experiment: Cell viability (MTT) assay of bronchial epithelial cells challenged with elastase; settings: within 24 h of treatment, read-out: IC50 of anti-proliferative activity on bronchial epithelial cells
Experimental: FIG. 3. […] HNE induced cell death after 24 h and this was alleviated by cotreatment with compound 1.
Bronchial epithelial cells (BEAS-2B, ATCC) were grown in bronchial epithelial basal media (BEBM, Lonza) supplemented with bronchial epithelial growth factors (Lonza) under a humidified environment with 5% CO2 at 37° C. BEAS-2B (5,000) cells were seeded in collagen-coated 96-well plates and treated with varying concentrations of elastase after 24 h of seeding. […] The cells were incubated for an additional 24 h before the addition of the MTT reagent. Cell viability was measured according to the manufacturer's instructions (Promega). IC50 calculations were done by GraphPad Prism 5.03 based on duplicate experiments.

sICAM-1 = experiment: Measurement of sICAM-1 levels in culture supernatants (AlphaLisa); settings: elastase-challenged BEAS-2B cells, 6 h, P<0.05
Experimental: A significant difference in expression of fully glycosylated mICAM-1 (˜100 kDa) was observed between the control and elastase treatment, with maximum expression in the former. […] This inverse relationship is consistent with measurements of sICAM-1 levels in the culture supernatants and provided internal validation of the direct effects of elastase with the proteolytic cleavage of ICAM-1.
BEAS-2B cells (60,000) were seeded in collagen-coated 24-well plates. After overnight incubation, the media was replaced with supplement-free media and the cells were further incubated for 24 h. At the end of the incubation period, cells were replenished with new supplement-free media prior to treatment. Stock human neutrophil elastase solution was prepared in sodium acetate and test aliquots were further diluted in supplement-free medium. […] Control cells were treated with DMSO (1%) and sodium acetate in supplement-free medium (4%). The cells were incubated for 6 h. Culture supernatants were collected and sICAM-1 levels were determined using ICAM-1 AlphaLisa® Kit (Perkin Elmer) according to the manufacturer's instruction.

BEAS-2B cells [2] = experiment: Morphology of elastase-treated bronchial epithelial cells; settings: within 2 h of treatment with human neutrophil elastase
Experimental: FIG. 4. Human neutrophil elastase induces changes in morphology of BEAS-2B cells within 2 h of treatment.
An apparent change in cellular morphology of bronchial epithelial cells was observed within 2 h of elastase treatment, with cells becoming rounded, in contrast to the elongated appearance of control cells (FIG. 4). […] These observations indicated intercellular adhesion molecules as a possible direct target of exogenous elastase in bronchial epithelial cells. […] Several proteases have been implicated in the posttranslational modification of membrane-bound ICAM-1 (mICAM-1) to soluble ICAM-1 (sICAM-1), depending on the cell type. In endothelial, fibroblast and astrocyte cultures, sICAM-1 generation is mediated by a matrix metalloprotease or ADAM 17^24.

Work on “Elastase: human neutrophil elastase used to challenge bronchial epithelial cells” yielded an IC50 (BEAS-2B cells [1]) of 82 nM.
For `CC(C)(C)C(=O)Oc1ccc(S(=O)(=O)Nc2ccccc2C(=O)NCC(=O)O)cc1` [sivelestat], the “Concentration giving significant decrease of sICAM-1 levels” value (sICAM-1) was 320 nM and the “Effect on elastase-induced change in morphology of BEAS-2B cells” value (BEAS-2B cells [2]) was “reverted”.
